Columns and labels:
[1] = system: arthritic rats (adjuvant arthritis); assay: Analgesic activity: effect on adjuvant arthritis in rats (Randall-Selitto pain threshold); assay type: in vivo, Lewis rats; details: Rattus norvegicus, single dose, pain threshold of left hind paw 2 hrs after administration, threshold pressure of treated vs non-treated rats, ratio of 1.5 considered effective, read-out: The coefficient of analgesic
COX-I = biological target: T1, COX-I (Homo sapiens, UniProt P23219); assay: Whole blood assay for COX-I (TXB2 production); assay type: cell-based
T1 construct: Fresh blood was collected by syringe without anticoagulants from volunteers with consent; from tissue; host or cells: fresh human whole blood from volunteers, allowed to clot
Method: [B] Inhibiting Activity Against COX-I and COX-II (Whole Blood Assay) (i) Test Metho: Whole Blood Assay for COX-I
Fresh blood was collected by syringe without anticoagulants from volunteers with consent. The subjects had no apparent inflammatory conditions and had not taken any medication for at least 7 days prior to blood collection.
500 μl Aliquots of human whole blood were immediately incubated with 2 μl of either dimethyl sulfoxide vehicle or a test compound at final concentrations for 1 hr at 37° C. to allow the blood to clot. Appropriate treatments (no incubation) were used as blanks. At the end of the incubation, 5 μl of 250 mM Indomethacin was added to stop the reaction. The blood was centrifuged at 6000×g for 5 min at 4° C. to obtain serum. A 100 μl aliquot of serum was mixed with 400 μl methanol for protein precipitation. The supernatant was obtained by centrifuging at 6000×g for 5 min at 4° C. and was assayed for TXB2 using an enzyme immunoassay kit according to the manufacturer's procedure. For a test compound, the results were expressed as percent inhibition of thromboxane B2(TXB2) production relative to control incubations containing dimethyl sulfoxide vehicle.
The data were analyzed by that a test compound at the indicated concentrations was changed log value and was applied simple linear regression. IC50 value was calculated by least squares method.

COX-II = biological target: T2, COX-II (Homo sapiens, UniProt P35354); assay: Whole blood assay for COX-II (LPS-induced PGE2 production); assay type: cell-based; details: LPS 24 hrs at 37° C., inhibition of PGE2 production
T2 construct: incubation of the blood with 10 μl of 5 mg/ml lipopolysaccharide for 24 hrs at 37° C. for induction of COX-II; from tissue; host or cells: heparinized fresh human whole blood from volunteers, LPS-stimulated
T2 sequence (P35354 18-604): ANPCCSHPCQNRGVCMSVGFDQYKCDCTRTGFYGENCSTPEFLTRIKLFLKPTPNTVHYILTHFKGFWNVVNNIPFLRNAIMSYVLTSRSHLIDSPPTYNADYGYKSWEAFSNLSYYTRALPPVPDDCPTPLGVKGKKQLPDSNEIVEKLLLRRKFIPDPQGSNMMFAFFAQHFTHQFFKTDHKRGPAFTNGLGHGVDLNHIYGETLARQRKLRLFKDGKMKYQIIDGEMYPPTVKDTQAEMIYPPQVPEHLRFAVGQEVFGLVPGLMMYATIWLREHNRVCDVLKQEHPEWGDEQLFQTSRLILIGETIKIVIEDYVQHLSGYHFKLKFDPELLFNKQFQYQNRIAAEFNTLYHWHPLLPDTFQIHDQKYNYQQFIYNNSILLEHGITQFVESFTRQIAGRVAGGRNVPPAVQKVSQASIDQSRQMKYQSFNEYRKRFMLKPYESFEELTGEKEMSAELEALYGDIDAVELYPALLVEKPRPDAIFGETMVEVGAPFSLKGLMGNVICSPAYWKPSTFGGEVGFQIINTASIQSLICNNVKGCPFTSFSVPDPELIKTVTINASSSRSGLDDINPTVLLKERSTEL
Method: Whole Blood Assay for COX-II
Fresh blood was collected in heparinized tubes by syringe from volunteers with consent. The subjects had no apparent inflammatory conditions and had not taken any medication for at least 7 days prior to blood collection.
500 μl aliquots of human whole blood were incubated with either 2 μl dimethyl sulfoxide vehicle or 2 μl of a test compound at final concentrations for 15 min at 37° C. This was followed by incubation of the blood with 10 μl of 5 mg/ml lipopolysaccharide for 24 hrs at 37° C. for induction of COX-II. Appropriate PBS treatments (no LPS) were used as blanks. At the end of the incubation, the blood was centrifuged at 6000×g for 5 min at 4° C. to obtain plasma. A 100 μl aliquot of plasma was mixed with 400 μl methanol for protein precipitation. The supernatant was obtained by centrifuging at 6000×g for 5 min at 4° C. and was assayed for prostaglandin E2 (PGE2) using a radioimmunoassay kit after conversion of PGE2 to its methyl oximate derivative according to the manufacturer's procedure.
For a test compound, the results were expressed as percent inhibition of PGE2 production relative to control incubations containing dimethyl sulfoxide vehicle. The data were analyzed by that a test compound at the indicated concentrations was changed log value and was applied simple linear regression. IC50 value was calculated by least squares method.

T1 sequence (P23219 24-599): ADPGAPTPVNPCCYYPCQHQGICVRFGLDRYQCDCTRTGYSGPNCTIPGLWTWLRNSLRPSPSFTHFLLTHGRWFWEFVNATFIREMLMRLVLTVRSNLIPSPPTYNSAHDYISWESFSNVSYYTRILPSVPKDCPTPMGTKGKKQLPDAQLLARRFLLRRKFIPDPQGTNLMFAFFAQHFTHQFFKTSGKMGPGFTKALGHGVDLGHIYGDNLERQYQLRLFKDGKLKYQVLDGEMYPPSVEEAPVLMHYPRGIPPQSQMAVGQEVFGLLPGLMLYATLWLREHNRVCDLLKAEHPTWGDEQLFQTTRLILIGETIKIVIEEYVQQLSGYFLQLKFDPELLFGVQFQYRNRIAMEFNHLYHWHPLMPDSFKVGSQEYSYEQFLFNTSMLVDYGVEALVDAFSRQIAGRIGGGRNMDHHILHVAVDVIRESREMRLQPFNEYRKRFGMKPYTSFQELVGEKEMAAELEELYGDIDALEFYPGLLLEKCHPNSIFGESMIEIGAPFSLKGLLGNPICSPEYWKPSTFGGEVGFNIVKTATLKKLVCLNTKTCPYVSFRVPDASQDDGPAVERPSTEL

melting point	Compound	other results
128 to 128.1 °C	COCOc1ccc(-c2cc(S(C)(=O)=O)nn2-c2ccc(OC)cc2)cc1	–
78 to 80 °C	COC(=O)NCCc1ccc(-c2cc(C(F)(F)F)nn2-c2ccc(OC)cc2)cc1	–
97 to 98 °C	COc1ccc(-n2nc(C(F)(F)F)cc2-c2ccc(CCNC(C)=O)cc2)cn1	–
137 to 138 °C	CCN(C)C(=O)c1cc(-c2ccc(CCNS(C)(=O)=O)cc2)n(-c2ccc(OC)nc2)n1	–
207 to 209 °C	CCN(C)C(=O)c1cc(-c2ccc(OCCN)cc2)n(-c2ccc(OC)cc2)n1.Cl	–
108 to 113 °C	CCN(C)C(=O)c1cc(-c2ccc(OCCNC(N)=O)cc2)n(-c2ccc(OC)cc2)n1	–
187 to 190 °C	COc1ccc(-n2nc(C#N)cc2-c2ccc(OCCNC(N)=O)cc2)cc1	–
173 to 176 °C	COc1ccc(-n2nc(C#N)cc2-c2ccc(OCCNC(N)=O)cc2)cn1	–
136.5 to 138.2 °C	COc1ccc(-n2nc(Cl)cc2-c2ccc(OCCO)cc2)cn1	–
142 to 144 °C	COc1ccc(-n2nc(C3CC3)cc2-c2ccc(OCCO)cc2)cc1	–
121 to 122 °C	COc1ccc(-n2nc(C(F)(F)F)cc2-c2ccc(CCCS(C)(=O)=O)cc2)cn1	–
169 to 170 °C	COc1ccc(-n2nc(C(F)(F)F)cc2-c2ccc(CCOC(N)=O)cc2)cc1	–
157 to 158 °C	COc1ccc(-n2nc(C(F)(F)F)cc2-c2ccc(CCNC(N)=O)cc2)cc1	–
165 to 167 °C	COc1ccc(-n2nc(S(C)(=O)=O)cc2-c2ccc(OCCNC(N)=O)cc2)cc1	–
96 to 97 °C	COc1ccc(-n2nc(C(C)C)cc2-c2ccc(OCCNS(C)(=O)=O)cc2)cn1	–
112 to 114 °C	COc1ccc(-n2nc(Cl)cc2-c2ccc(OCCNS(C)(=O)=O)cc2)cn1	–
146 to 147 °C	CCOc1cc(-c2ccc(OCCNS(C)(=O)=O)cc2)n(-c2ccc(OC)cc2)n1	–
164.3 to 165.2 °C	COc1ccc(-n2nc(OCC(C)C)cc2-c2ccc(OCCNS(C)(=O)=O)cc2)cc1	–
122.7 to 122.8 °C	CSc1ccc(-n2nc(C(F)F)cc2-c2ccc(OCCNS(C)(=O)=O)cc2)cc1	–
125.7 to 126.1 °C	COc1ccc(-n2nc(C(F)F)cc2-c2ccc(CNS(C)(=O)=O)cc2)cn1	–
106 to 106.3 °C	CCN(C)C(=O)c1cc(-c2ccc(OCCNS(C)(=O)=O)cc2)n(-c2ccc(OC)cc2)n1	–
131.3 to 131.4 °C	COc1ccc(-n2nc(OCC(F)(F)F)cc2-c2ccc(OCCNS(C)(=O)=O)cc2)cc1	–
139.1 to 139.4 °C	COc1ccc(-n2nc(Cl)cc2-c2ccc(OCCNS(=O)(=O)CCO)cc2)cc1	–
182.6 to 182.9 °C	COc1ccc(-n2nc(C(=O)N3CCCCC3)cc2-c2ccc(CNS(C)(=O)=O)cc2)cn1	–
160.8 to 161.2 °C	COc1ccc(-n2nc(C(=O)C(C)C)cc2-c2ccc(CNS(C)(=O)=O)cc2)cn1	–
120 °C	COc1ccc(-n2nc(OC(C)C)cc2-c2ccc(OCCNC(N)=O)cc2)cn1	–
100 to 104 °C	COc1ccc(-n2nc(C(C)C)cc2-c2ccc(OCCNC(N)=O)cc2)cc1	–

melting point	Compound	other results
121 to 121.6 °C	COc1ccc(-n2nc(OC(C)C)cc2-c2ccc(OCCNS(C)(=O)=O)cc2)cn1	–
67.7 to 69.2 °C	CCOc1cc(-c2ccc(OCCO)cc2)n(-c2ccc(OC)cc2)n1	–
81 to 82 °C	CCOc1cc(-c2ccc(OCCO)cc2)n(-c2ccc(OC)nc2)n1	–
50.7 to 51.7 °C	COc1ccc(-n2nc(OCC(F)(F)F)cc2-c2ccc(OCCO)cc2)cc1	–
91.2 to 91.3 °C	COc1ccc(-n2nc(OCC(F)(F)F)cc2-c2ccc(OCCO)cc2)cn1	–
158.6 to 159 °C	COc1ccc(-n2nc(N(C)C(=O)N(C)C)cc2-c2ccc(OCCNC(N)=O)cc2)cc1	–
164 to 167 °C	COc1ccc(-n2nc(C(=O)N3CCCCC3)cc2-c2ccc(OCCNC(N)=O)cc2)cn1	–
146.3 to 146.7 °C	CCN(C)C(=O)c1cc(-c2ccc(OCCNC(N)=O)cc2)n(-c2ccc(OC)nc2)n1	–
178.9 °C	COc1ccc(-n2nc(C(=O)N3CCCCC3)cc2-c2ccc(CNC(N)=O)cc2)cn1	–
111 to 115 °C	COc1ccc(-n2nc(Cl)cc2-c2ccc(CNC(N)=O)cc2)cn1	–
141.2 to 142.2 °C	COc1ccc(-n2nc(SC)cc2-c2ccc(OCCNC(N)=O)cc2)cc1	–
205 to 206 °C	COc1ccc(-n2nc(C(F)(F)F)cc2-c2ccc(CCNC(N)=O)cc2)cn1	–
150.5 to 151.1 °C	COc1ccc(-n2nc(C(F)(F)F)c(C)c2-c2ccc(OCCNC(N)=O)cc2)cc1	–
184.3 to 184.7 °C	CSc1ccc(-n2nc(C(F)F)cc2-c2ccc(OCCNC(N)=O)cc2)cc1	–
121.9 to 123.8 °C	COc1ccc(-n2nc(C(=O)N3CCCCC3)cc2-c2ccc(OCCO)cc2)cc1	–
141.6 to 142.3 °C	COc1ccc(-n2nc(OC)cc2-c2ccc(OCCNC(N)=S)cc2)cc1	–
139 to 140 °C	COc1ccc(-n2nc(C(F)F)cc2-c2ccc(OCCNC(N)=O)cc2)cn1 [241]	–
229 to 231 °C	COc1ccc(-n2nc(C3CC3)cc2-c2ccc(OCCN)cc2)cc1.Cl [277]	–
228 to 231 °C	COc1ccc(-n2nc(C3CC3)cc2-c2ccc(OCCN)cc2)cc1.Cl [322]	–
114.7 to 115.5 °C	COc1ccc(-n2nc(Cl)cc2-c2ccc(OCCO)cc2)cc1 [Example 23, 2-{4-[3-Chloro-1-(4-methoxyphenyl)-1H-pyrazol-5-yl]-phenoxy}ethanol]	response vs control in vivo at 3.2 mg/kg [1]: > 150%; IC50 (COX-I): < 10 nM; IC50 (COX-II): > 100 nM
144.8 to 145.4 °C	COc1ccc(-n2nc(Cl)cc2-c2ccc(OCCNC(N)=O)cc2)cc1 [Example 28, N-(2-{4-[3-Chloro-1-(4-methoxyphenyl)-1H-pyrazol-5-yl]-phenoxy}ethyl)urea]	response vs control in vivo at 3.2 mg/kg [1]: > 150%; IC50 (COX-I): < 10 nM; IC50 (COX-II): > 100 nM
–	COc1ccc(-n2nc(C(F)F)cc2-c2ccc(CNS(C)(=O)=O)cc2)cc1 [Example 61, N-{4-[3-(Difluoromethyl)-1-(4-methoxyphenyl)-1H-pyrazol-5-yl]benzyl}methanesulfonamide]	response vs control in vivo at 3.2 mg/kg [1]: > 150%; IC50 (COX-I): < 10 nM; IC50 (COX-II): > 100 nM
–	COc1ccc(C2N=C(C(F)F)C=C2c2ccc(OCCNC(N)=O)cc2)cc1 (centres unmarked) [Example 181]	response vs control in vivo at 3.2 mg/kg [1]: ≥ 150%; IC50 (COX-I): < 10 nM; IC50 (COX-II): > 100 nM
–	COc1ccc(-n2nc(C(F)(F)F)cc2-c2ccc(OCCNC(N)=O)cc2)cc1 [Example 240]	response vs control in vivo at 3.2 mg/kg [1]: ≥ 150%; IC50 (COX-I): < 10 nM; IC50 (COX-II): > 100 nM
150.8 to 151 °C	COc1ccc(-n2nc(C3CC3)cc2-c2ccc(OCCNC(N)=O)cc2)cc1 [Example 248]	response vs control in vivo at 3.2 mg/kg [1]: ≥ 150%; IC50 (COX-I): < 10 nM; IC50 (COX-II): > 100 nM
–	COc1ccc(-n2nc(C(F)(F)F)cc2-c2ccc(OCCN)cc2)cc1 [Example 267]	response vs control in vivo at 3.2 mg/kg [1]: ≥ 150%
